Data reported in patent publication US11859203B2, “Cell culture methods” (UCB BIOPHARMA SRL, priority 2017, dated 2024).

Experiments:
Assay type in all cases: cell-based, Chinese Hamster
[1] = tested on: CHO-DG44 cells from cell line 1; assay: Fed-batch 2 L bioreactor culture with cysteine/cystine derivatives, cell line 1 (Example 3); conditions: 50% replacement, cell line 1, 2 L bioreactor; for decrease of the b value level (color intensity) compared to control: 40 mg/mL
Procedure: (§1) The ability of cysteine/cystine derivatives to reduce color and acidic species of a recombinant protein preparation produced in cell culture was evaluated in a bioreactor for two cell lines. This model is more representative of the large-scale production than the shake flask due to the geometry and additional control. CHO-DG44 cells from cell line 1 and 2 were inoculated in 1300 mL of basal media at a seeding density of 0.35×10^6 cells/mL in 2 L stirred bioreactor (Sartorius). The cells were cultivated during 14 days in fed-batch mode. The cell cultures were agitated at 280 rpm and the DO was maintained at 40%. The cell culture was maintained at pH 7.0±0.2 with an automatic CO2 sparging regulation. Cells were cultured in a fed-batch mode with bolus addition of Feed every day of culture. The basal media contained 0.04 mmol/L of cysteine+0.38 mmol/L of cystine. The Feed contained 153.3 mmol/L of cystine. Over the entire 14-day production phase, the total volume of Feed added corresponded to 5.7% (w/w) of the culture start volume for cell line 1 and to 3.1% (w/w) of the culture start volume for cell line 2.
(§2) The cysteine present in the Feed was replaced by different cysteine- and cystine derivatives at different percentages as presented in Table 2. A condition with only 50% of cysteine was added to test whether the improvements observed were due to the cysteine derivative or to the reduction of cysteine only. Osmolality was daily monitored using an osmometer from Advanced instrument. Off line pH, dissolved O2 and dissolved CO2 were daily monitored using a Nova Biomedical Phox (Nova biomedical). Metabolites concentrations were daily determined using a CedexBioHT system (Roche). Viable cell concentration and cell viability were measured daily using a ViCell automated cell counter (Beckman Coulter). The cell culture fluid was collected daily by centrifuging 1 mL of cell culture fluid for determination of antibody titer by HPLC prot A (waters) or using protein-L Octet measurement (Pall). At the end of the 14 days of culture, the cell culture fluid was harvested by centrifugation. The supernatant was then purified using a protein-A or L affinity chromatography (GE). The protein-A or L eluates were used for the molecular weight determination using UPLC size exclusion (Waters) and for the charge variants determination using isocapillary focusing (PROTEINSIMPLE iCE3). Another part of the protein-A eluates (only from cell line 1) was concentrated to 40 mg/mL using Amicon centricon centrifugal filter devices (Millipore). Color intensity of the concentrated antibody composition was measured in the concentrated protein A eluates using a spectrophotometer by transmission (UltrascanPro) and compared to the CIE (commission internationale de l'éclairage) scale. The numerical results were normalized to the concentration of 40 mg/mL.

[2] = tested on: cell line 1; assay: Reproducibility in 2 L bioreactor, cell line 1, average of data sets 1 and 2 (Example 4); conditions: for cell growth (VCC) compared to control: from day 9, 2 L bioreactor, data sets 1 and 2
Procedure: as §1, §2
The reproducibility of the results was evaluated in bioreactor with cell line 1. The experiments of Example 3 were repeated with an additional control and a bioreactor with 50% S-sulfocysteine 50% Cysteine Feed. The data from the two experiments were analyzed to confirm the effect previously observed with cysteine/cystine derivatives.

[3] = tested on: CHO-DG44 cells from cell line 2; assay: Fed-batch 2 L bioreactor culture with cysteine/cystine derivatives, cell line 2 (Example 3); conditions: 50% replacement; cell line 2, 2 L bioreactor
Procedure: as §1, §2

[4] = tested on: CHO-DG44 cells producing a full-length antibody, mAb1; assay: Fed-batch shake flask culture with cysteine in Feed replaced by cysteine/cystine derivatives (Example 1)
Procedure: The ability of cysteine/cystine derivatives to reduce color and acidic species of an antibody preparation produced recombinantly by host cells grown in cell culture was evaluated. For this experiment, a scale-down model in shake flask was used. CHO-DG44 cells producing a full-length antibody, mAb1, were inoculated in 100 mL of basal media at a seeding density of 0.35×10^6 cells/mL mAb1 comprises a light chain having the sequence as defined in SEQ ID NO: 9 and a heavy chain having the sequence as defined in SEQ ID NO: 10.
The shake flask vessels were 250 mL shake flasks (corning) disposed in an agitated incubator (Infors) protected from light. The cells were cultivated for 14 days at 36.8° C. with 80% humidity. The cell cultures were agitated at 140 rpm at the beginning of the process. The agitation was increased during the process progressively to reach 250 rpm to maintain a DO % at 40% in the shake flask, as is it done in a 2 L bioreactor process. The cell culture was maintained at pH 7.0±0.2 by decreasing the CO2 in the incubator from 5% before the process to 2% during the process. Cells were cultured in a fed-batch mode with bolus addition of Feed every day of culture. The basal media contained 0.04 mmol/L of cysteine+0.38 mmol/L of cystine. The Feed contained 153.3 mmol/L of cystine. Over the entire 14-day production phase, the total volume of Feed added corresponded to 4.47% (v/v) of the culture start volume.
The cysteine present in the Feed was replaced by different cysteine and cystine derivatives at different percentages as presented in Table 1. Osmolality was daily monitored using an osmometer from Advanced Instruments. Off line pH, dissolved O2 and dissolved CO2 were daily monitored using a model BioProfile pHOx® blood gas analyser (Nova Biomedical Corporation, Waltham, Mass.). Metabolites concentrations were daily determined using a CedexBioHT system (Roche). Viable cell concentration and cell viability were measured daily using a ViCell automated cell counter (Beckman Coulter). The cell culture fluid was collected daily by centrifuging 1 mL of cell culture fluid for determination of antibody titer using protein A HPLC (Waters). At the end of the 14 days of culture, the cell culture fluid was harvested by centrifugation. The supernatant was then purified using a protein-A affinity chromatography (MabSelect Sure, GE). […] The relative percentage of main, acidic (APG for Acidic Peak Group) and basic (BPG for Basic Peak Group) isoforms of the purified mAb was determined by Imaged Capillary Electrophoresis (PROTEINSIMPLE iCE3). […]
Color intensity of the concentrated antibody composition was measured in the concentrated protein A eluates using a spectrophotometer by transmission (UltrascanPro) and compared to the CIE (commission internationale de l'éclairage) scale. […]

[5] = tested on: CHO-DG44 cells from cell line 1; assay: Fed-batch Ambr15 mini bioreactor culture, different replacement levels, cell line 1 (Example 5); conditions: for cell growth: 90% of cysteine/cystine in Feed replaced, Ambr15
Procedure: We tested different concentrations of cysteine/cystine derivatives on the improvement on the APG level of a recombinant protein preparation produced in cell culture cultivated in mini bioreactors. CHO-DG44 cells from cell line 1 were inoculated in 12 mL basal media at a seeding density of 0.35×10^6 cells/mL in Ambr15 bioreactors (Sartorius). The cells were cultivated in fed-batch mode during 14 days. The DO was maintained at 40% and the pH was maintained 7.0±0.2 with an automatic CO2 sparging regulation. Viable cell concentration and cell viability were measured daily using a ViCell automated cell counter (Beckman Coulter). Cells were cultured in a fed-batch mode with a daily bolus addition of Feed. The basal media contained 0.04 mmol/L cysteine+0.38 mmol/L cystine. The Feed contained 153.3 mmol/L of cystine. Over the entire 14-day production phase, the total volume of added Feed corresponded to 4.7% (v/v) of the culture start volume.
Different percentages of cysteine present in the Feed was replaced by different cysteine- and cystine analogs. Table 4 provides an overview of different percentages tested and their equivalence in molar ratio relative to cysteine or cystine. E.g. for N-Acetyl-L-cysteine 10% means that 10% molar amount of cysteine equivalent has been replaced by 10% molar amount of N-Acetyl-L-cysteine; for N,N′-Diacetyl-L-cystine, 10% means that 10 molar amount of cystine equivalent has been replaced with 10% molar amount of N,N′-Diacetyl-L-cystine. At the end of the 14 days of culture, the cell culture fluid was harvested by centrifugation. The supernatant was then purified using a protein-A affinity chromatography (GE). The protein-A eluates were used for the charge variants determination using isocapillary focusing (PROTEINSIMPLE iCE3).

[6] = 50% replacement, compared to 50% cysteine feed
[7] = 50% replacement, data sets 1 and 2 average

Compound | decrease of acidic species level compared to control [1] [%] | decrease of antibody titer compared to control [1] | main species level [1] | decrease of the b value level (color intensity) compared to control [1] [%] | specific productivity [2, 6] | average decrease of b value level (color intensity) compared to control [2, 7] [%] | decrease in antibody titer compared to the controls average [2, 7] | titer loss due to cysteine reduction in feed compensated ([2]; compared to 50% cysteine feed) [%] | decrease of acidic species level compared to control [3] [%] | main species level [3] | decrease of b*value (color intensity) of the concentrated protein-A eluate compared to control ([4]; 50% replacement, day 14, eluate normalized to 40 mg/mL) [%] | decrease on acidic variants level compared to control ([4]; 50% replacement, day 14, iCE3) [%] | acidic species level with respect to the control ([5]; 10-90% replacement) | cell growth [5] | main species level [2, 7] | cell growth (VCC) compared to control ([2]; 50% replacement) | main charge species level with respect to the control ([5]; 10-90% replacement) | maximum reduction of acidic species level with respect to the control ([5]; with the increase of the percentage of replacement (10-90%)) [%] | maximum viable cell concentration ([4]; 50% of cysteine in Feed replaced) | cell growth (viable cell concentration) compared to control ([4]; 100% of cysteine in Feed replaced by derivative, shake flask, 14 days)
COC(=O)[C@H](CSSC[C@H](NC(C)=O)C(=O)OC)NC(C)=O [N,N′-diacetyl-L-cystine dimethylester, N,N′-diacetyl-L-cystine-dimethylester] | 15 | less than 5% | increase of main species | 25 | increase of the specific productivity | 30 | less than 5% | 5 | 13 | increase of main species | 21.2 | 24.8 | decrease of the acidic species level | Inhibition of the growth | – | – | – | – | – | –
CC(=O)N[C@@H](CSSC[C@H](NC(C)=O)C(=O)O)C(=O)O [N,N′-diacetyl-L-cystine, N,N′-Diacetyl-L-cystine] | 5 | – | increase of main species | 2.5 | did not impact the productivity | 14 | 10% | – | 8 | increase of main species | – | – | – | Inhibition of the growth | increase of main species | higher VCCs than the control conditions | positive difference with respect to the control | 27.5 | – | –
N[C@@H](CSS(=O)(=O)O)C(=O)O [S-sulfocysteine, S-Sulfocysteine, reference compound] | – | – | – | – | not to a specific impact | 5 | 25% | – | – | – | – | – | – | – | – | higher cell death than the control | – | – | 2×10^6 cells/mL | cells rapidly died on day 7
